Test results: patent US9451764B2, “Composition comprising insecticide-wax particles” (priority 2010, dated 2016)

System: Blattella germanica
Experiment: Activity of different insecticides on timber, cement and tile
Type: in vivo
Description: Example e) illustrates that other active ingredients as well can be used successfully in the context of this invention (as a diluted suspension concentration, i.e. as a spraying liquor of the invention). In addition to deltamethrin, both bendiocarb and beta-cyfluthrin and cyfluthrin can be encapsulated.

[1] = 50 mg/m^2 (reduced concentration), Cement
[2] = 50 mg/m^2 (reduced concentration), Tile
[3] = 100 mg/m^2 (standard concentration), Cement, 30-minute exposure
[4] = 100 mg/m^2 (standard concentration), Tile, 30-minute exposure
[5] = 4 mg/m^2 (reduced concentration), Cement
[6] = 4 mg/m^2 (reduced concentration), Tile
[7] = 4 mg/m^2 (reduced concentration), Timber
[8] = 12.5 mg/m^2 (standard concentration), Cement, 30-minute exposure
[9] = 12.5 mg/m^2 (standard concentration), Tile, 30-minute exposure
[10] = 12.5 mg/m^2 (standard concentration), Timber, 30-minute exposure
[11] = 8 mg/m^2 (reduced concentration), Cement
[12] = 8 mg/m^2 (reduced concentration), Tile
[13] = 8 mg/m^2 (reduced concentration), Timber
[14] = 25 mg/m^2 (standard concentration), Cement, 30-minute exposure
[15] = 25 mg/m^2 (standard concentration), Tile, 30-minute exposure
[16] = 25 mg/m^2 (standard concentration), Timber, 30-minute exposure

## CNC(=O)Oc1cccc2c1OC(C)(C)O2 [Bendiocarb, bendiocarb]
[1]
  Knockdown after 1 h: 90%
  Mortality after 24 h: 100%
[2]
  Knockdown after 1 h: 100%
  Mortality after 24 h: 100%
50 mg/m^2 (reduced concentration), Timber
  Knockdown after 1 h: 50%
[3]
  Knockdown after 1 h: 100%
  Mortality after 24 h: 100%
[4]
  Knockdown after 1 h: 100%
  Mortality after 24 h: 100%
100 mg/m^2 (standard concentration), Timber, 30-minute exposure
  Knockdown after 1 h: 60%
Blattella germanica, 24 h, read-out: Mortality after 24 h
  mortality at 50 mg/m2: 100%
Blattella germanica, read-out: Mortality after 24 h
  mortality at 100 mg/m2: 100%

## CC1(C)C(C=C(Cl)Cl)C1C(=O)OC(C#N)c1ccc(F)c(Oc2ccccc2)c1 (stereo not drawn) [Beta-cyfluthrin, beta-cyfluthrin]
[5]
  Knockdown after 1 h: 100%
  Mortality after 24 h: 100%
[6]
  Knockdown after 1 h: 100%
  Mortality after 24 h: 100%
[7]
  Knockdown after 1 h: 100%
  Mortality after 24 h: 100%
[8]
  Knockdown after 1 h: 100%
  Mortality after 24 h: 100%
[9]
  Knockdown after 1 h: 100%
  Mortality after 24 h: 100%
[10]
  Knockdown after 1 h: 100%
  Mortality after 24 h: 100%

## CC1(C)[C@H](C(=O)O[C@H](C#N)c2cccc(Oc3ccccc3)c2)[C@@H]1C=C(Br)Br [Deltamethrin, deltamethrin]
[5]
  Knockdown after 1 h: 100%
  Mortality after 24 h: 100%
[6]
  Knockdown after 1 h: 100%
  Mortality after 24 h: 100%
[7]
  Knockdown after 1 h: 100%
[8]
  Knockdown after 1 h: 100%
  Mortality after 24 h: 100%
[9]
  Knockdown after 1 h: 100%
  Mortality after 24 h: 100%
[10]
  Knockdown after 1 h: 100%
Blattella germanica, 24 h, 4 mg/m^2 (reduced concentration), Timber, read-out: Mortality after 24 h
  mortality at 4 mg/m2: 100%
Blattella germanica, 12.5 mg/m^2 (standard concentration), Timber, 30-minute exposure, read-out: Mortality after 24 h
  mortality at 12.5 mg/m2: 100%

## CC1(C)C(C=C(Cl)Cl)C1C(=O)OC(C#N)c1ccc(F)c(Oc2ccccc2)c1 (stereo not drawn) [cyfluthrin]
[11]
  Knockdown after 1 h: 100%
  Mortality after 24 h: 100%
[12]
  Knockdown after 1 h: 100%
  Mortality after 24 h: 100%
[13]
  Knockdown after 1 h: 100%
  Mortality after 24 h: 100%
[14]
  Knockdown after 1 h: 100%
  Mortality after 24 h: 100%
[15]
  Knockdown after 1 h: 100%
  Mortality after 24 h: 100%
[16]
  Knockdown after 1 h: 100%
  Mortality after 24 h: 100%
